Data reported in article PMC11638703 (RSC Advances, 2024).
Where two headings read alike, the source gives them in different places.

How the values were obtained:
[1] = target: T1, PIM-1 kinase (Homo sapiens, UniProt P11309); test: PIM-1 kinase inhibitory assay; format: biochemical
[2] = system: HepG2 cells; test: Cytotoxicity, MTT assay, HepG2 cells; format: cell-based; conditions: for LLE (lipophilic efficiency): from HepG2 IC50
[3] = system: MCF-7 cells; test: Cytotoxicity, MTT assay, MCF-7 cells; format: cell-based, human; conditions: from MCF-7 IC50
[4] = system: THLE2 cells; test: Cytotoxicity, MTT assay, normal THLE2 cells; format: cell-based
[5] = system: caspase 9; test: Caspase 9 level by ELISA in treated HepG2 cells; format: cell-based, human; conditions: HepG2 treated at IC50 dose
[6] = system: caspase 8; test: Caspase 8 level by ELISA in treated HepG2 cells; format: cell-based, human; conditions: HepG2 treated at IC50 dose, 48 h, control 55.01
[7] = system: caspase 3; test: Caspase 3 level by ELISA in treated HepG2 cells; format: cell-based, human; conditions: HepG2 treated at IC50 dose, 48 h, control 4.01
[8] = system: HepG2 cells; test: Annexin V/PI staining flow cytometry; format: cell-based; conditions: HepG2, IC50 dose, 48 h
[9] = target: T1, PIM-1 kinase; conditions: previously synthesized compound; ref [40]; cited from earlier work

T1 sequence (P11309 whole entry): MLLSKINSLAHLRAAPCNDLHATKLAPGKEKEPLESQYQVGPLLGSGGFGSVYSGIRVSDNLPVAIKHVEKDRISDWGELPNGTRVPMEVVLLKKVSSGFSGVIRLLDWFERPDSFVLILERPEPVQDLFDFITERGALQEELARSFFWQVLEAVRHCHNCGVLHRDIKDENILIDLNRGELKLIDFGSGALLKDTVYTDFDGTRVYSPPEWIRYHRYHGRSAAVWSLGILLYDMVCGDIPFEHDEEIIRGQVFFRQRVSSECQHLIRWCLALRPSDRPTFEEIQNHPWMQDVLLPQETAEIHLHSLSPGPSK

Q: Which “% of PIM-1 inhibition” value [1] does the source give for CCOC(=O)Cn1c(-c2ccc(Cl)cc2)cc(-c2ccc(O)c(OC)c2)c(C#N)c1=O [Compound 5, Ethyl 2-(6-(4-chlorophenyl)-3-cyano-4-(4-hydroxy-3-methoxyphenyl)-2-oxopyridin-1(2H)-yl)acetate] here?
A: 83.4 ± 2.3%

Q: And the IC50 [1]?
A: 64.6 ± 0.2 nM

Q: And the “LLE (lipophilic efficiency)” value [2]?
A: 2.93

Q: And the “LLE (lipophilic efficiency)” value [3]?
A: 2.65

Q: With COc1cc(-c2cc(-c3ccc(Cl)cc3)n(CN(C)C)c(=O)c2C#N)ccc1O [Compound 8, 6-(4-Chlorophenyl)-1-((dimethylamino)methyl)-4-(4-hydroxy-3-methoxyphenyl)-2-oxo-1,2-dihydropyridine-3-carbonitrile] as the compound, how does the “LLE (lipophilic efficiency)” value [2] read?
A: 2.76

Q: What about the “LLE (lipophilic efficiency)” value [3] of the same compound?
A: 2.97

Q: With COc1cc(-c2cc(-c3ccc(Cl)cc3)n(CC(=O)NN)c(=O)c2C#N)ccc1O [Compound 9, 2-(6-(4-Chlorophenyl)-3-cyano-4-(4-hydroxy-3-methoxyphenyl)-2-oxopyridin-1(2H)-yl)acetohydrazide] as the compound, how does the “maximum cell growth inhibition” value [4] read?
A: 13%

Q: What about the “selectivity for caspase-9 compared to caspase-3 and caspase-8” value [5] of the same compound?
A: ~2.6 fold

Q: And the “Concentration Caspase 9” value ([5]; 48 h, ELISA, control 43.33)?
A: 112.6 ng/mL

Q: And the “Concentration Caspase 8” value [6]?
A: 74.4 ng/mL

Q: And the “% of PIM-1 inhibition” value [1]?
A: 98.8 ± 1.9%

Q: What about the IC50 [1] of the same compound?
A: 8.4 ± 0.2 nM

Q: What about the “percentage of cell growth (inhibition)” value ([2]; HepG2, maximal concentration) of the same compound?
A: 94%

Q: And the “LLE (lipophilic efficiency)” value [2]?
A: 5.60

Q: What about the “Concentration Caspase 3” value [7] of the same compound?
A: 9.8 ng/mL

Q: What about the “LLE (lipophilic efficiency)” value [3] of the same compound?
A: 5.41

Q: And the early apoptosis [8]?
A: 15.2%

Q: And the late apoptosis [8]?
A: 37.5%

Q: What about the necrosis cell death [8] of the same compound?
A: failed to enhance necrosis cell death

Q: What about the “total apoptotic cell death vs untreated control” value [8] of the same compound?
A: 175 times

Q: What about the total apoptosis ([8]; untreated 0.30%) of the same compound?
A: 52.7%

Q: With COc1cc(-c2cc(-c3ccc(Cl)cc3)n(CC(=O)n3nc(C)cc3C)c(=O)c2C#N)ccc1O [Compound 10, 6-(4-Chlorophenyl)-1-(2-(3,5-dimethyl-1H-pyrazol-1-yl)-2-oxoethyl)-4-(4-hydroxy-3-methoxyphenyl)-2-oxo-1,2-dihydropyridine-3-carbonitrile] as the compound, how does the “% of PIM-1 inhibition” value [1] read?
A: 87.6 ± 3.2%

Q: What about the IC50 [1] of the same compound?
A: 34.6 ± 0.12 nM

Q: Which “% of PIM-1 inhibition” value [9] does the source give for N#Cc1cnc2ncncc2c1 [Pyrido[2,3-d] pyrimidine-6-carbonitrile] here?
A: 97.8 ± 1.8%
